In patent US8349899B1 (Arrowhead Center, Inc., priority 2008, dated 2013):
pIC50: −log10 of the molar value. Read-outs that look alike come from different tables or passages of the source.

Experiments:
OVCAR-5 = assay: NCI60 growth inhibition, Ovarian OVCAR-5; assay type: cell-based; details: Homo sapiens
Excerpt: (§1) MSTCO was screened against the NCI60 tumor panel. Cell lines shown above represent lines common to all three screens, and growth inhibition is expressed as the concentration of drug (μM) that achieved 50% growth inhibition.

U251 = assay: NCI60 growth inhibition, Central Nervous System U251; assay type: cell-based; details: Homo sapiens, U-251
Excerpt: as §1

HCT-15 = assay: NCI60 growth inhibition, Colon HCT-15; assay type: cell-based; details: Homo sapiens
Excerpt: as §1

TK-10 = assay: NCI60 growth inhibition, Renal TK-10; assay type: cell-based; details: Homo sapiens
Excerpt: as §1

NCI-H23 = assay: NCI60 growth inhibition, Non-Small Cell Lung NCI-H23; assay type: cell-based; details: Homo sapiens
Excerpt: as §1

SK-MEL-2 = assay: NCI60 growth inhibition, Melanoma SK-MEL-2; assay type: cell-based; details: Homo sapiens
Excerpt: as §1

SN12C = assay: NCI60 growth inhibition, Renal SN12C; assay type: cell-based; details: Homo sapiens
Excerpt: as §1

OVCAR-3 = assay: NCI60 growth inhibition, Ovarian OVCAR-3; assay type: cell-based; details: Homo sapiens
Excerpt: as §1

CAKI-1 = assay: NCI60 growth inhibition, Renal CAKI-1; assay type: cell-based; details: Homo sapiens
Excerpt: as §1

A549/ATCC = assay: NCI60 growth inhibition, Non-Small Cell Lung A549/ATCC; assay type: cell-based; details: Homo sapiens
Excerpt: as §1

IGROV1 = assay: NCI60 growth inhibition, Ovarian IGROV1; assay type: cell-based; details: Homo sapiens, IGROV-1
Excerpt: as §1

SF-295 = assay: NCI60 growth inhibition, Central Nervous System SF-295; assay type: cell-based; details: Homo sapiens
Excerpt: as §1

SR = assay: NCI60 growth inhibition, Leukemia SR; assay type: cell-based; details: Homo sapiens
Excerpt: as §1

M14 = assay: NCI60 growth inhibition, Melanoma M14; assay type: cell-based
Excerpt: as §1

MALME-3M = assay: NCI60 growth inhibition, Melanoma MALME-3M; assay type: cell-based; details: Homo sapiens
Excerpt: as §1

HT29 = assay: NCI60 growth inhibition, Colon HT29; assay type: cell-based; details: Homo sapiens, HT-29
Excerpt: as §1

RPMI-8226 = assay: NCI60 growth inhibition, Leukemia RPMI-8226; assay type: cell-based; details: Homo sapiens
Excerpt: as §1

K-562 = assay: NCI60 growth inhibition, Leukemia K-562; assay type: cell-based; details: Homo sapiens, K562
Excerpt: as §1

786-0 = assay: NCI60 growth inhibition, Renal 786-0; assay type: cell-based; details: Homo sapiens
Excerpt: as §1

HL-60(TB) = assay: cells; assay type: cell-based; details: Homo sapiens; Leukemia HL-60(TB)
NCI-H226 = assay: NCI60 growth inhibition, Non-Small Cell Lung NCI-H226; assay type: cell-based; details: Homo sapiens
Excerpt: as §1

LOX IMVI = assay: NCI60 growth inhibition, Melanoma LOX IMVI; assay type: cell-based; details: Homo sapiens
Excerpt: as §1

MOLT-4 = assay: NCI60 growth inhibition, Leukemia MOLT-4; assay type: cell-based; details: Homo sapiens
Excerpt: as §1

HOP-62 = assay: NCI60 growth inhibition, Non-Small Cell Lung HOP-62; assay type: cell-based; details: Homo sapiens
Excerpt: as §1

SNB-75 = assay: NCI60 growth inhibition, Central Nervous System SNB-75; assay type: cell-based; details: Homo sapiens
Excerpt: as §1

OVCAR-4 = assay: NCI60 growth inhibition, Ovarian OVCAR-4; assay type: cell-based; details: Homo sapiens
Excerpt: as §1

SK-MEL-5 = assay: NCI60 growth inhibition, Melanoma SK-MEL-5; assay type: cell-based; details: Homo sapiens
Excerpt: as §1

CCRF-CEM = assay: NCI60 growth inhibition, Leukemia CCRF-CEM; assay type: cell-based; details: Homo sapiens
Excerpt: as §1

SNB-19 = assay: NCI60 growth inhibition, Central Nervous System SNB-19; assay type: cell-based; details: Homo sapiens
Excerpt: as §1

NCI-H322M = assay: NCI60 growth inhibition, Non-Small Cell Lung NCI-H322M; assay type: cell-based; details: Homo sapiens
Excerpt: as §1

ACHN = assay: NCI60 growth inhibition, Renal ACHN; assay type: cell-based; details: Homo sapiens
Excerpt: as §1

[1] = system: HeLa cervical adenocarcinoma cells; assay: bipolar spindle formation in HeLa cells; assay type: cell-based, human
Method: Biochemical- and cell-based assays were used to evaluate the inhibitory activities of the STLC analogs. Using a commercially available assay from Cytoskeleton, Inc, analogs were assayed for their ability to block the microtubule-activated ATPase activity of recombinant human EG5 motor domain. In parallel, HeLa cells were treated for four hours with a range of concentrations, and then fixed, stained for microtubules, and mitotic cells were scored for spindle bipolarity.

SW-620 = assay: NCI60 growth inhibition, Colon SW-620; assay type: cell-based; details: Homo sapiens
Excerpt: as §1

HCC-2998 = assay: NCI60 growth inhibition, Colon HCC-2998; assay type: cell-based; details: Homo sapiens
Excerpt: as §1

UACC-257 = assay: NCI60 growth inhibition, Melanoma UACC-257; assay type: cell-based; details: Homo sapiens
Excerpt: as §1

KM12 = assay: NCI60 growth inhibition, Colon KM12; assay type: cell-based; details: Homo sapiens
Excerpt: as §1

EKVX = assay: NCI60 growth inhibition, Non-Small Cell Lung EKVX; assay type: cell-based; details: Homo sapiens
Excerpt: as §1

NCI60 tumor panel = NCI60 tumor panel growth inhibition, whole panel; assay type: cell-based
SF-268 = assay: NCI60 growth inhibition, Central Nervous System SF-268; assay type: cell-based; details: Homo sapiens
Excerpt: as §1

UACC-62 = assay: NCI60 growth inhibition, Melanoma UACC-62; assay type: cell-based; details: Homo sapiens
Excerpt: as §1

NCI-H522 = assay: NCI60 growth inhibition, Non-Small Cell Lung NCI-H522; assay type: cell-based; details: Homo sapiens
Excerpt: as §1

HCT-116 = assay: NCI60 growth inhibition, Colon HCT-116; assay type: cell-based; details: Homo sapiens
Excerpt: as §1

COLO 205 = assay: NCI60 growth inhibition, Colon COLO 205; assay type: cell-based; details: Homo sapiens
Excerpt: as §1

OVCAR-8 = assay: NCI60 growth inhibition, Ovarian OVCAR-8; assay type: cell-based; details: Homo sapiens
Excerpt: as §1

SF-539 = assay: NCI60 growth inhibition, Central Nervous System SF-539; assay type: cell-based; details: Homo sapiens
Excerpt: as §1

SK-MEL-28 = assay: NCI60 growth inhibition, Melanoma SK-MEL-28; assay type: cell-based; details: Homo sapiens
Excerpt: as §1

SK-OV-3 = assay: NCI60 growth inhibition, Ovarian SK-OV-3; assay type: cell-based; details: Homo sapiens
Excerpt: as §1

UO-31 = assay: NCI60 growth inhibition, Renal UO-31; assay type: cell-based; details: Homo sapiens
Excerpt: as §1

Which GI50 (OVCAR-5) does the source give for COc1ccc(C(SC[C@H](N)CO)(c2ccccc2)c2ccccc2)cc1 [Compound 1.0, 2-amino-3-[(4-methoxy-phenyl)-diphenyl-methylsulfanyl]-propan-1-ol] here?
The GI50 was 390 nM.

And the GI50 (U251)?
The GI50 was 190 nM.

And the GI50 (HCT-15)?
The GI50 was 210 nM.

What about the GI50 (TK-10) of the same compound?
The GI50 was 460 nM.

And the GI50 (NCI-H23)?
The GI50 was 260 nM.

And the GI50 (SK-MEL-2)?
The GI50 was 240 nM.

And the GI50 (SN12C)?
The GI50 was 320 nM.

What about the GI50 (OVCAR-3) of the same compound?
Its GI50 is 200 nM.

What about the GI50 (CAKI-1) of the same compound?
Its GI50 is 450 nM.

What about the GI50 (A549/ATCC) of the same compound?
The GI50 was 330 nM.

And the GI50 (IGROV1)?
Its GI50 is 260 nM.

What about the GI50 (SF-295) of the same compound?
Its GI50 is 280 nM.

What about the GI50 (SR) of the same compound?
Its GI50 is 10 nM.

And the GI50 (M14; Homo sapiens, Melanoma M14)?
The GI50 was 20 nM.

What about the “increase in activity over STLC” value (M14; melanoma cell line M14, GI50) of the same compound?
Its value is 20 fold.

And the “increase in activity over monastrol” value (M14; melanoma cell line M14, GI50)?
Its value is 1200 fold.

What about the GI50 (MALME-3M) of the same compound?
The GI50 was 360 nM.

What about the GI50 (HT29) of the same compound?
Its GI50 is 340 nM.

What about the GI50 (RPMI-8226) of the same compound?
The GI50 was 30 nM.

What about the GI50 (K-562) of the same compound?
Its GI50 is 60 nM.

And the GI50 (786-0)?
Its GI50 is 440 nM.

What about the GI50 (HL-60(TB)) of the same compound?
The GI50 was 190 nM.

What about the GI50 (NCI-H226) of the same compound?
Its GI50 is 2750 nM.

What about the GI50 (LOX IMVI) of the same compound?
The GI50 was 490 nM.

And the GI50 (MOLT-4)?
The GI50 was 280 nM.

What about the GI50 (HOP-62) of the same compound?
Its GI50 is 510 nM.

And the GI50 (SNB-75)?
The GI50 was 260 nM.

What about the GI50 (OVCAR-4) of the same compound?
The GI50 was 1620 nM.

And the GI50 (SK-MEL-5)?
The GI50 was 60 nM.

And the GI50 (CCRF-CEM)?
The GI50 was 100 nM.

What about the GI50 (SNB-19) of the same compound?
Its GI50 is 250 nM.

What about the GI50 (NCI-H322M) of the same compound?
The GI50 was 110 nM.

What about the GI50 (ACHN) of the same compound?
Its GI50 is 490 nM.

And the “inhibitory activity in the cell-based assay” value ([1]; HeLa bipolar spindle formation)?
Its value is “best performing analog”.

What about the pIC50 ([1]; Homo sapiens, HeLa, 4 h, read-out: Bipolar spindle formation IC50) of the same compound?
The pIC50 was 6.74.

And the GI50 (SW-620)?
Its GI50 is 70 nM.

What about the GI50 (HCC-2998) of the same compound?
Its GI50 is 50 nM.

And the GI50 (UACC-257)?
Its GI50 is 540 nM.

What about the GI50 (KM12) of the same compound?
Its GI50 is 220 nM.

What about the GI50 (EKVX) of the same compound?
The GI50 was 510 nM.

What about the “anti-proliferative activity, initial single-dose screen” value (NCI60 tumor panel; 60 cancer cell lines, single dose 10 μM) of the same compound?
The value was “promising activity”.

And the “average increase in activity over Monastrol” value (NCI60 tumor panel; GI50, average over cell lines)?
The value was 143 fold.

And the “average increase in activity over STLC” value (NCI60 tumor panel; GI50, average over cell lines)?
The value was 35 fold.

And the GI50 (NCI60 tumor panel; read-out: average GI50)?
Its GI50 is 360 nM.

What about the GI50 (NCI60 tumor panel; read-out: highest GI50 of the range over the panel) of the same compound?
Its GI50 is 3000 nM.

And the GI50 (NCI60 tumor panel; read-out: lowest GI50 of the range over the panel)?
Its GI50 is 20 nM.

And the GI50 (SF-268)?
Its GI50 is 110 nM.

And the GI50 (UACC-62)?
The GI50 was 250 nM.

And the GI50 (NCI-H522)?
The GI50 was 220 nM.

And the GI50 (HCT-116)?
Its GI50 is 30 nM.

And the GI50 (COLO 205)?
Its GI50 is 80 nM.

What about the GI50 (OVCAR-8) of the same compound?
The GI50 was 420 nM.

And the GI50 (SF-539)?
Its GI50 is 260 nM.

What about the GI50 (SK-MEL-28) of the same compound?
Its GI50 is 620 nM.

And the GI50 (SK-OV-3)?
Its GI50 is 80 nM.

And the GI50 (UO-31)?
Its GI50 is 1100 nM.
